Reference: PubChem BioAssay (NCI)
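Cultured in 96-well plates, cells were exposed to test compound for 48 hours across five concentrations. TGI: total growth inhibition.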

Columns and labels:
Assay in all cases: NCI-60 cell line screen, 48 h
[1] = tested on: RXF 393 renal
[2] = tested on: M19-MEL melanoma
[3] = tested on: M14 melanoma
[4] = tested on: SF-268 CNS
[5] = tested on: DMS 273 small cell lung
[6] = tested on: TK-10 renal
[7] = tested on: KM20L2 colon
[8] = tested on: DMS 114 small cell lung
[9] = tested on: NCI-H522 lung
[10] = tested on: COLO 205 colon
[11] = tested on: ACHN renal
[12] = tested on: HT29 colon
[13] = tested on: HCC-2998 colon
[14] = tested on: 786-0 renal
[15] = tested on: HL-60(TB) leukemia
[16] = tested on: OVCAR-5 ovarian
[17] = tested on: A498 renal
[18] = tested on: A549 NSCLC
[19] = tested on: HOP-62 NSCLC
[20] = tested on: CAKI-1 renal
[21] = tested on: SK-MEL-2 melanoma
[22] = tested on: HCT-15 colon
[23] = tested on: HOP-18 NSCLC
[24] = tested on: NCI-H460 lung
[25] = tested on: SK-MEL-5 melanoma
[26] = tested on: NCI-H226 lung
[27] = tested on: KM12 colon
[28] = tested on: SK-MEL-28 melanoma
[29] = tested on: SW-620 colon
[30] = tested on: SNB-19 CNS
[31] = tested on: K-562 leukemia
[32] = tested on: IGROV1 ovarian
[33] = tested on: HCT-116 colon
[34] = tested on: SNB-75 CNS
[35] = tested on: OVCAR-8 ovarian
[36] = tested on: EKVX NSCLC
[37] = tested on: NCI-H23 lung
[38] = tested on: MALME-3M melanoma
[39] = tested on: OVCAR-4 ovarian
[40] = tested on: SF-295 CNS
[41] = tested on: UO-31 renal
[42] = tested on: OVCAR-3 ovarian
[43] = tested on: SN12C renal
[44] = tested on: HOP-92 NSCLC
[45] = tested on: CCRF-CEM leukemia
[46] = tested on: LOX IMVI melanoma
[47] = tested on: UACC-257 melanoma
[48] = tested on: DLD-1 colon
[49] = tested on: UACC-62 melanoma
[50] = tested on: LXFL 529 NSCLC
[51] = tested on: SK-OV-3 ovarian
[52] = tested on: U251 CNS
[53] = tested on: RXF-631 renal
[54] = tested on: SF-539 CNS
[55] = tested on: SNB-78 CNS
[56] = tested on: XF 498 CNS

Measured: TGI

O=c1/c(=C/c2c(O)ccc3ccccc23)sc2nc3ccccc3n12
> 100 µM: all assays above
